Measurements reported in ChEMBL document CHEMBL1133437, “Parallel synthesis of a library of 1,4-naphthoquinones and automated screening of potential inhibitors of trypanothione reductase from Trypanosoma cruzi” (Bioorg Med Chem Lett, 2000).
pIC50: −log10 of the molar value.

How the values were obtained:
[1] = Concentration required for inhibition of human homologous Disulphide oxidoreductase (hGR) in the presence of GSSG as substrate
[2] = molecular target: Trypanothione reductase (Trypanosoma cruzi) (UniProt P28593); test: Percentage inhibition of Trypanothione reductase at 25 uM in the presence of 200 uM DTNBA as substrate
Chain of Trypanothione reductase (Trypanosoma cruzi) (P28593 whole entry, looked up): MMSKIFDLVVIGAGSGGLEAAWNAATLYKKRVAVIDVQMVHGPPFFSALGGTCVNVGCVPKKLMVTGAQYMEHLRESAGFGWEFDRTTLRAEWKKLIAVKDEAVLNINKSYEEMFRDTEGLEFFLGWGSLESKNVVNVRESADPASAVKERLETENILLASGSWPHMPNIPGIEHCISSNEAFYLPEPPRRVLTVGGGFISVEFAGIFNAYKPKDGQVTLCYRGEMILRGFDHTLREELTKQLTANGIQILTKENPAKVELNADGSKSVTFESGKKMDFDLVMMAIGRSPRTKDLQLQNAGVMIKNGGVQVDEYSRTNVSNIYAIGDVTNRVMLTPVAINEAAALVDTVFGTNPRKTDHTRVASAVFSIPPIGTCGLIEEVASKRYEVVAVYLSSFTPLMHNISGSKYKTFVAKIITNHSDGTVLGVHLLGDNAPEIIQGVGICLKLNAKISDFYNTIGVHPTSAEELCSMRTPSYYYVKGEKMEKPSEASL

Trypanothione reductase = Trypanothione reductase (Trypanosoma cruzi, UniProt P28593); test: Concentration required for inhibition of Trypanothione reductase (TcTR) from Trypanosoma cruzi in the presence of 50 uM TS2 as substrate
Chain of Trypanothione reductase (P28593 whole entry): as the sequence (P28593 whole entry, looked up) above

[3] = Concentration required for inhibition of human homologous Disulphide oxidoreductase (hGR)

Row | SMILES | pIC50 [1] | inhibition [2] | pIC50 (Trypanothione reductase) | pIC50 [3]
1 | CC1=CC(=O)c2ccccc2C1=O [MENADIONE] | – | – | 4.26 | 4.20
2 | CC1=CC(=O)c2c(O)cccc2C1=O [PLUMBAGIN] | – | – | 4.55 | 4.42

Stronger by pIC50 (Trypanothione reductase), values ahead:

Row | pIC50 [1] | inhibition [2] | pIC50 (Trypanothione reductase) | SMILES | pIC50 [3]
3 | < 4.30 | 86% | 5.96 | CCCCN(CCCC)CCCNC(=O)CCCCC1=C(C)C(=O)c2ccccc2C1=O | –
4 | < 4.30 | 81% | 6.22 | CCCCN(CCCC)CCCNC(=O)CCCCC1=C(CCCCC(=O)NCCCN(CCCC)CCCC)C(=O)c2c(O)cccc2C1=O | –
5 | 4.39 | 88% | 6.52 | CCCCN(CCCC)CCCNC(=O)CCCCC1=C(C)C(=O)c2cccc(O)c2C1=O | –
6 | 5.00 | 79% | 6.30 | CC1=C(CCCCC(=O)NCCCNCCCNC(=O)CCCCC2=C(C)C(=O)c3cccc(O)c3C2=O)C(=O)c2c(O)cccc2C1=O | –
